Assay results as given in ChEMBL document CHEMBL1201862, “PubChem BioAssay data set” (2004).
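Where inhibition never reached the appropriate level, the endpoint shown equals the highest concentration tested. Otherwise, values were interpolated linearly from a five-concentration, 48-hour dose response in 96-well plates. GI50 = concentration required for 50% inhibition of growth.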 Active and inactive are the calls of the source. Cut-off read from the data, not from the text of the source: active = GI50 up to about 1.1 µM and inactive = higher. Non-standard residues stand in square brackets, D forms with d. Residues, ends and D or L forms follow the SMILES beside them. *: point of attachment. X30 = COC1=CC(=O)N(C(=O)[C@@H](O*)C(C)C)[C@H]1Cc1ccccc1; NMeL = CN[C@@H](CC(C)C)C(=O)O; Cbz = O=C(OCc1ccccc1)*

Assays:
Assay in all cases: NCI tumour cell line growth inhibition, 48 h
LOX IMVI = test system: LOX IMVI
RPMI-8226 = test system: RPMI-8226
MOLT-4 = test system: MOLT-4
MDA-MB-231 = test system: MDA-MB-231
A498 = test system: A498
HOP-62 = test system: HOP-62
SK-OV-3 = test system: SK-OV-3
K562 = test system: K562
SNB-75 = test system: SNB-75
PC-3 = test system: PC-3
SF-268 = test system: SF-268
UACC-257 = test system: UACC-257
MDA-N = test system: MDA-N
SN12C = test system: SN12C
CCRF-CEM = test system: CCRF-CEM
NCI/ADR-RES = test system: NCI/ADR-RES
OVCAR-8 = test system: OVCAR-8
HCC 2998 = test system: HCC 2998
RXF 393 = test system: RXF 393
KM12 = test system: KM12

SMILES | GI50 (LOX IMVI) | GI50 (RPMI-8226) | GI50 (MOLT-4) | GI50 (MDA-MB-231) | GI50 (A498) | GI50 (HOP-62) | GI50 (SK-OV-3) | GI50 (K562) | GI50 (SNB-75) | GI50 (PC-3) | GI50 (SF-268) | GI50 (UACC-257) | GI50 (MDA-N) | GI50 (SN12C) | GI50 (CCRF-CEM) | GI50 (NCI/ADR-RES) | GI50 (OVCAR-8) | GI50 (HCC 2998) | GI50 (RXF 393) | GI50 (KM12)
COc1ccc(O)c(/C=N/NC(=S)N2CCCCC2)c1 | 0.767 µM (active) | 1.05 µM (active) | 1.3 µM (inactive) | 9.23 µM (inactive) | 12.1 µM (inactive) | 1.35 µM (inactive) | 2.16 µM (inactive) | 3.05 µM (inactive) | 10.5 µM (inactive) | 5 µM (inactive) | 0.948 µM (active) | 6.04 µM (inactive) | 7.8 µM (inactive) | 4.92 µM (inactive) | 0.569 µM (active) | 1.77 µM (inactive) | 1.86 µM (inactive) | 1.87 µM (inactive) | 7.73 µM (inactive) | 4.38 µM (inactive)
O=C(OCc1ccccc1)N(CCCCN(CCCNC(=O)C(F)(F)F)C(=O)OCc1ccccc1)CCCNC(=O)C(F)(F)F | > 100 µM (inactive) | > 100 µM (inactive) | 8.87 µM (inactive) | > 100 µM (inactive) | > 100 µM (inactive) | > 100 µM (inactive) | > 100 µM (inactive) | > 100 µM (inactive) | > 100 µM (inactive) | 36.9 µM (inactive) | > 100 µM (inactive) | > 100 µM (inactive) | > 100 µM (inactive) | > 100 µM (inactive) | > 100 µM (inactive) | 22.5 µM (inactive) | > 100 µM (inactive) | > 100 µM (inactive) | > 100 µM (inactive) | > 100 µM (inactive)
C=C1c2nc3ccccc3n2C=C(c2ccc(OC)cc2)N1c1ccc(OCCN2CCOCC2)cc1 | 13.3 µM (inactive) | 1.91 µM (inactive) | 3.75 µM (inactive) | > 86.1 µM (inactive) | 66.8 µM (inactive) | > 100 µM (inactive) | > 100 µM (inactive) | 7.62 µM (inactive) | > 100 µM (inactive) | 9.51 µM (inactive) |  | 7.13 µM (inactive) | > 75.2 µM (inactive) | > 61.8 µM (inactive) | 3.73 µM (inactive) | 5.21 µM (inactive) | 6.03 µM (inactive) | 86.3 µM (inactive) | 71.6 µM (inactive) | 15.8 µM (inactive)
CC(=O)NNc1nc(C)c(C(/C=C/c2ccc3c(c2)OCO3)=N/Nc2ccccc2)s1 | > 100 µM (inactive) | > 100 µM (inactive) | > 100 µM (inactive) | > 100 µM (inactive) | > 100 µM (inactive) | > 100 µM (inactive) | > 100 µM (inactive) | > 100 µM (inactive) | > 100 µM (inactive) | > 100 µM (inactive) | > 100 µM (inactive) | > 100 µM (inactive) | > 100 µM (inactive) | > 100 µM (inactive) | > 100 µM (inactive) | > 100 µM (inactive) | > 100 µM (inactive) | > 100 µM (inactive) | > 100 µM (inactive) | > 100 µM (inactive)
Cc1cc(S(=O)(=O)Nc2nc3cccnc3[nH]2)c(S)cc1Cl | 83 µM (inactive) | > 100 µM (inactive) | > 100 µM (inactive) | 45.3 µM (inactive) | > 100 µM (inactive) | > 100 µM (inactive) | > 100 µM (inactive) | > 100 µM (inactive) | > 100 µM (inactive) | 92.3 µM (inactive) | 79.1 µM (inactive) | > 100 µM (inactive) | > 100 µM (inactive) | > 100 µM (inactive) | > 100 µM (inactive) | > 100 µM (inactive) | > 100 µM (inactive) | > 100 µM (inactive) | > 100 µM (inactive) | > 100 µM (inactive)
O=C(O/C=C\OC1CCCC1(c1ccccc1)c1ccccc1)c1ccccc1 (stereo not drawn) | 1.67 µM (inactive) | 2.61 µM (inactive) | 4.29 µM (inactive) | 2.51 µM (inactive) | 23.1 µM (inactive) | 18.8 µM (inactive) | 16.5 µM (inactive) | 4.19 µM (inactive) | 3.83 µM (inactive) | 3.34 µM (inactive) | 4.05 µM (inactive) | 15.8 µM (inactive) | 3.47 µM (inactive) | 3.95 µM (inactive) | 2.04 µM (inactive) | 2.88 µM (inactive) | 3 µM (inactive) | 18.7 µM (inactive) | 2.49 µM (inactive) | 14.9 µM (inactive)
CCCCSC1=N/C(=C\c2ccc(N(C)C)cc2)C(NN)=N1 | > 100 µM (inactive) | > 100 µM (inactive) | > 100 µM (inactive) | > 100 µM (inactive) | > 100 µM (inactive) | > 100 µM (inactive) | > 100 µM (inactive) | > 100 µM (inactive) | > 100 µM (inactive) | > 100 µM (inactive) | > 100 µM (inactive) | > 100 µM (inactive) | > 100 µM (inactive) | > 100 µM (inactive) | > 100 µM (inactive) | > 100 µM (inactive) | > 100 µM (inactive) | > 100 µM (inactive) | > 100 µM (inactive) | > 100 µM (inactive)
C/C(=N\NC(=S)N1CC2CCC(CC2)C1)c1cccc(C)n1 | 0.78 µM (active) | 0.31 µM (active) | 0.01 µM (active) | 0.224 µM (active) | 3.11 µM (inactive) | 1.06 µM (active) | 0.809 µM (active) | < 0.0112 µM (active) | 2.64 µM (inactive) | 0.01 µM (active) | 0.533 µM (active) | 0.142 µM (active) | 2.82 µM (inactive) | 0.566 µM (active) | 0.01 µM (active) | 0.01 µM (active) | 0.294 µM (active) | 2.16 µM (inactive) | 3.72 µM (inactive) | 0.422 µM (active)
CCN1CCC(O)(/C=C/c2ccc(C(C)C)cc2)C(C(=O)/C=C/c2ccc(C(C)C)cc2)C1 (stereo not drawn) | 0.895 µM (active) | 0.697 µM (active) | 1.59 µM (inactive) | 1.87 µM (inactive) | 6.38 µM (inactive) | 3.52 µM (inactive) | 14 µM (inactive) | 2.72 µM (inactive) | 4.62 µM (inactive) | 3.52 µM (inactive) | 1.96 µM (inactive) | 6.67 µM (inactive) | 2.37 µM (inactive) | 2.47 µM (inactive) | 1.16 µM (inactive) | 3.08 µM (inactive) | 1.96 µM (inactive) | 1.81 µM (inactive) | 2.56 µM (inactive) | 1.85 µM (inactive)
C/C(CC(O)(C(F)(F)F)C(F)(F)F)=N\NC(N)=O | > 10 µM (inactive) | > 10 µM (inactive) | > 10 µM (inactive) | > 10 µM (inactive) | > 10 µM (inactive) | > 10 µM (inactive) | > 10 µM (inactive) | > 10 µM (inactive) | > 10 µM (inactive) | > 10 µM (inactive) | > 10 µM (inactive) | > 10 µM (inactive) | > 10 µM (inactive) | > 10 µM (inactive) | > 10 µM (inactive) | > 10 µM (inactive) | > 10 µM (inactive) | > 10 µM (inactive) | > 10 µM (inactive) | > 10 µM (inactive)
COC1=CC(=O)N(C(=O)[C@@H](OC(=O)[C@@H]2CCCN2C(=O)[C@@H]2CCCN2C(=O)[C@H](CC(C)C)N(C)C(=O)[C@@H](NC(=O)[C@@H](NC(=O)OCc2ccccc2)C(C)C)C(C)C)C(C)C)[C@H]1Cc1ccccc1 (Cbz-VV[NMeL]PP-X30) | > 100 µM (inactive) | 17.6 µM (inactive) |  | 15 µM (inactive) | 19.6 µM (inactive) | 21.4 µM (inactive) | 31.3 µM (inactive) | > 100 µM (inactive) | 2.37 µM (inactive) | 11.2 µM (inactive) | > 100 µM (inactive) | 76 µM (inactive) | > 100 µM (inactive) | 34.8 µM (inactive) | 35.3 µM (inactive) | > 100 µM (inactive) | > 100 µM (inactive) | > 100 µM (inactive) | 14.2 µM (inactive) | > 100 µM (inactive)
CN(CC(N)=O)C(=O)N(CCCl)N=O [SARCNU] | > 100 µM (inactive) | > 100 µM (inactive) | > 100 µM (inactive) | > 100 µM (inactive) | > 100 µM (inactive) | > 100 µM (inactive) | > 83.9 µM (inactive) | > 100 µM (inactive) | 38.6 µM (inactive) | > 100 µM (inactive) | 27.2 µM (inactive) | > 100 µM (inactive) | > 100 µM (inactive) | > 100 µM (inactive) | > 81.8 µM (inactive) | > 100 µM (inactive) | > 100 µM (inactive) | > 100 µM (inactive) | > 100 µM (inactive) | > 100 µM (inactive)
C=CCOc1ccc(N)c([N+](=O)[O-])c1 | > 100 µM (inactive) | > 100 µM (inactive) | > 100 µM (inactive) | > 10 µM (inactive) | 33.3 µM (inactive) | > 100 µM (inactive) | > 100 µM (inactive) | > 100 µM (inactive) | 89.3 µM (inactive) | > 100 µM (inactive) | > 100 µM (inactive) | > 100 µM (inactive) | > 100 µM (inactive) | > 100 µM (inactive) | > 100 µM (inactive) | > 100 µM (inactive) | > 100 µM (inactive) | > 100 µM (inactive) | > 100 µM (inactive) | > 100 µM (inactive)
Cc1ccc(S(=O)(=O)N/N=C2\C(=O)Nc3cc(O)c(C(=O)O)cc32)cc1 | > 100 µM (inactive) | > 100 µM (inactive) | > 100 µM (inactive) | > 100 µM (inactive) | > 100 µM (inactive) | > 100 µM (inactive) | > 100 µM (inactive) | > 100 µM (inactive) | > 100 µM (inactive) | > 100 µM (inactive) | > 100 µM (inactive) | > 100 µM (inactive) | > 100 µM (inactive) | > 100 µM (inactive) | > 100 µM (inactive) | > 100 µM (inactive) | > 100 µM (inactive) | > 100 µM (inactive) | > 100 µM (inactive) | > 100 µM (inactive)
